From patent US20190240297A1, “TREATMENT OF INFLAMMATORY BOWEL DISEASE” (UNIVERSITÉ LAVAL, priority 2016, published 2019)

Experiments:
P2Y6 receptor [1] = molecular target: T1, P2Y6 receptor (Homo sapiens, UniProt Q15077); experiment: UDP stimulation of human differentiated IEC, CXCL8 expression by qPCR; assay type: cell-based; conditions: 100 μM for 5 hours, 1 patient (FIG. 13B)
T1 construct: endogenous in cells; host or cells: primary differentiated intestinal epithelial cells from human colon crypts (1 patient)
T1 sequence (Q15077 whole entry): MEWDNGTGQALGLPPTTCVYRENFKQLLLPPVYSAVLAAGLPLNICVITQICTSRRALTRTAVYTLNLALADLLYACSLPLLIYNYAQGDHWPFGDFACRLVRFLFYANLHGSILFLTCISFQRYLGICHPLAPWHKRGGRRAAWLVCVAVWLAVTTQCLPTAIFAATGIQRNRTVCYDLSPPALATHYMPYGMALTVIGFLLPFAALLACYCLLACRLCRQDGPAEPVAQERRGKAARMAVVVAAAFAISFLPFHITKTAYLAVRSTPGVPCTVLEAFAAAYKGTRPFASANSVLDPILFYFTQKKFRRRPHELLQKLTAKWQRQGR
Text: (§1) Human colon pieces were recuperated and washed several times with D-PBS containing Fetal Bovine Serum (FBS), antibiotics, antifungal and gentamycin until the solution is clear. Epithelial unit containing stem cells (crypts) were isolated from human samples (as prepared above) or from the intestine of 10-12 weeks old mice by dissection and dissociated with collagenase type I (collagenase XI, DTT and dispase for human). Briefly, the longitudinal muscle layer from the colons were excised, washed with ice-cold Mg^2+ and Ca^2+ free Salt Solution (PBS) and then digested with 75 U/mL collagenase type I or collagenase XI. The digestion was stopped with Dulbecco's Modified Eagles Medium (DMEM/F12) containing 10% v/v foetal bovine serum (FBS). L-glutamine, Hepes. N-2 supplement, B-27 supplement and antibiotics. The digestion mixture was filtered with 70 μm filter and the effluent was centrifuged twice at 50×g for 5 min at 4° C. […]
(§2) Murine and human differentiated IEC were grown on plates and stimulated with UDP (100 μM) for 5 hours then the expression of KC (for mouse) and CXCL8 (for human) were evaluated by qPCR.
(§3) Genomic DNA was extracted from the tail of WT and Entpd8^−/− mice using Direct PCR Lysis Reagent to perform PCR using specific primers for NTPDase8 gene and neomycin as mentioned above. […] Primer sequences for cytokine analysed were purchased from Qiagen.

P2Y6 receptor [2] = molecular target: T2, P2Y6 receptor (Mus musculus, UniProt Q9ERK9); experiment: UDP stimulation of murine differentiated IEC, KC expression by qPCR; assay type: cell-based; conditions: 100 μM for 5 hours (FIG. 13A)
T2 construct: endogenous in cells; host or cells: primary differentiated intestinal epithelial cells from colon crypts of WT and Entpd8-/- mice
T2 sequence (Q9ERK9 whole entry): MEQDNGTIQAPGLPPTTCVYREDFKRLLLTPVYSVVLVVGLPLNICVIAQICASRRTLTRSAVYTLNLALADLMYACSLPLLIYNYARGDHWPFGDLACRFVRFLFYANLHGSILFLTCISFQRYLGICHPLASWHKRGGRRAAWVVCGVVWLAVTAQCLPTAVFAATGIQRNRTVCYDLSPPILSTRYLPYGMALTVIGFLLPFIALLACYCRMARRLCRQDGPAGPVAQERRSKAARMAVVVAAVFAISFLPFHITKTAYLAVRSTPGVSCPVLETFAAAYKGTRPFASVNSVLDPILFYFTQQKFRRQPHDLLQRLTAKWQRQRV
Text: as §1, §2, §3

DSS-induced colitis [3] = experiment: In vivo intestinal permeability assay (FITC-dextran flux from intestine to plasma) in DSS-treated mice; design: species or system mouse
Procedure: (§4) For intrarectal injection mice were anesthetized and stool that may be present in distal colon was removed with pressure by fingertips to the posterior end of the animal. A 5F infant feeding tube catheter was inserted 4 cm (measured from the midway point between the 2 catheter side ports) into the colon. At this point, 100 μL of P2Y6 antagonist (MRS 2578 CAS number 711019-86-2, 10 μM), apyrase (4 Units/mice) or their vehicles DMSO or PBS respectively was administered slowly. Following the injection of the solution, animals were positioned head-down for 90 sec to avoid loss of the injected solution. Mice were euthanized 8 hr after the last intrarectal injection, tissue and plasma were isolated for experimental outcomes.
Intestinal permeability was assessed with fluorescein-labeled dextran (FITC-dextran) as described previously with some modification (Ashleigh Hansen, 2013). All mice were administrated by oral gavage with FITC-dextran (60 mg/[…] of mouse) 4 h after the intrarectal injection of MRS 2578, apyrase or vehicle (DMSO or PBS). Another 4 hours later, mice were euthanized and whole blood was obtained by cardiac puncture. Plasma was isolated and the movement of FITC-flux from colonic lumen into the plasma was measured by fluorometry at 488 nm. Data are expressed as total quantity of dextran-FITC in 100 μl of plasma.

DSS-induced colitis [4] = experiment: DSS-induced acute colitis, disease activity index (DAI) after intrarectal injection; assay type: in vivo, mouse
Procedure: as §4, with “All mice were treated or not (control mice) with 3% (w/v) DSS (molecular weight: 42 kDa) added to the drinking water for 7 days. Disease activity index (DAI) was evaluated daily by scoring percent of weight loss, intestinal bleeding (no blood, presence of blood), and stool consistency (normal stool, loose stool, or diarrhea) as previously described (Berberat P, 2005). For” for “For”

IEC = experiment: KC secretion by DSS-treated IEC (ELISA of basolateral supernatant); assay type: cell-based, mouse; conditions: WT and Entpd8-/- IEC, DSS 3% 24 hours; 10 μM added 6 hours after DSS for last 18 hours (FIG. 14B)
Text: as §1
In other experiments, murine IEC were grown on permeable supports, stimulated on the apical chamber with DSS 3% for 6 hours then the P2Y6 antagonist MRS 2578 (10 μM) was added for the following 18 hours. The supernatant from basolateral chamber was collected and KC secretion was evaluated by Elisa. […]

IEC monolayers = experiment: In vitro intestinal permeability assay (FITC-dextran) on DSS-treated IEC monolayers; assay type: cell-based, mouse; conditions: WT and Entpd8-/- IEC, DSS 3% 24 hours; 10 μM added 6 hours after DSS for last 18 hours (FIG. 14A)
Text: as §1, with “Hepes.” for “Hepes. N-2 supplement, B-27 supplement and antibiotics. The digestion mixture was filtered with 70 μm filter and the effluent was centrifuged twice at 50×g for 5 min at 4° C.”
In other experiments, murine IEC were grown on permeable supports, stimulated on the apical chamber with DSS 3% for 6 hours then the P2Y6 antagonist MRS 2578 (10 μM) was added for the following 18 hours. The supernatant from basolateral chamber was collected and KC secretion was evaluated by Elisa.
Intestinal permeability was assessed with fluorescein-labeled dextran (FITC-dextran) as described previously with some modification (Ashleigh Hansen 2013). […] 4 hours later, samples were taken from the bottom chambers and fluorescence intensity in the samples was measured. Data were expressed as total quantity of dextran-FITC in supernatant.

With `O=c1ccn([C@@H]2O[C@H](COP(=O)(O)OP(=O)(O)O)[C@@H](O)[C@H]2O)c(=O)[nH]1` [UDP] the “CXCL8 expression (mRNA)” value (P2Y6 receptor [1]) was “significant increase” and the “KC expression (mRNA)” value (P2Y6 receptor [2]) was “significant increase”.
With apyrase the “Protection from colitis as determined by permeability measurements” value (DSS-induced colitis [3]; WT mice, 4 U/mice intrarectally daily day 2 to day 7, vs PBS (FIG. 11B)) was “fully protected”, the “Protection from colitis as determined by DAI” value (DSS-induced colitis [4]; WT mice, DSS, 4 U/mice intrarectally daily day 2 to day 7, vs PBS (FIG. 11A)) was “fully protected” and the “Disease activity index (DAI) / inflammation” value (DSS-induced colitis [4]; WT mice, DSS, 4 U/mice intrarectally in late phase, day 5 to day 7, vs PBS (FIG. 11C)) was “reduced inflammation”.
`S=C=Nc1cccc(NC(=S)NCCCCNC(=S)Nc2cccc(N=C=S)c2)c1` [MRS 2578] was tested, and the “Intestinal permeability, FITC-dextran flux from intestine to plasma” value (DSS-induced colitis [3]; Entpd8-/- and WT mice, day 7, 10 μM intrarectally day 2 to day 7 (FIG. 10B, D)) was “significantly ameliorated the permeability”, the “Disease activity index (DAI) / inflammation” value (DSS-induced colitis [4]; Entpd8-/- mice, 3% DSS 7 days, 10 μM intrarectally daily day 2 to day 7, vs DSS alone (FIG. 10A)) was “reduced inflammation and the DAI” and the “Disease activity index (DAI) / inflammation” value (DSS-induced colitis [4]; WT mice, 3% DSS 7 days, 10 μM intrarectally daily day 2 to day 7, vs DSS alone (FIG. 10C)) was “reduced inflammation and the DAI”. For the same molecule, the “KC (chemokine) secretion” value (IEC) was “decreasing epithelial permeability and chemokines secretion” and the “Epithelial permeability (FITC-dextran in basolateral chamber)” value (IEC monolayers) was “decreasing epithelial permeability”.
